Data published in PubChem BioAssay (NCI).
“And” between values parts separate entries of the source, which are not always exact repeats. Equal values may be shown once.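 Step 1: Grow cells in 96-well plates. Step 2: Expose to compound for 48 hours at 5 concentrations. Step 3: Interpolate endpoints linearly; if unreached, use highest concentration. GI50 is the concentration that inhibits growth by half. At the TGI there is no net growth.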

Tests used:
Assay in all cases: NCI-60 cell line screen, 48 h
[1] = test system: CCRF-CEM leukemia
[2] = test system: EKVX NSCLC
[3] = test system: HCT-15 colon
[4] = test system: HOP-62 NSCLC
[5] = test system: IGROV1 ovarian
[6] = test system: MOLT-4 leukemia
[7] = test system: OVCAR-3 ovarian
[8] = test system: OVCAR-4 ovarian
[9] = test system: PC-3 prostate
[10] = test system: SR leukemia

SMILES	TGI [1] [µM]	TGI [2] [µM]	TGI [3] [µM]	TGI [4] [µM]	TGI [5]	TGI [6] [µM]	TGI [7] [µM]	TGI [8] [µM]	TGI [9] [µM]	TGI [10] [µM]	GI50 [1] [µM]	GI50 [2] [µM]	GI50 [3] [µM]	GI50 [4] [µM]	GI50 [5]	GI50 [6] [µM]	GI50 [7] [µM]	GI50 [8] [µM]	GI50 [9] [µM]	GI50 [10] [µM]
C[C@]12CC[C@H]3[C@@H](CCC4=C(Br)C(=O)C=C[C@@]43O)[C@@H]1CCC2=O	31.7	> 100	52.7	> 100	> 100 µM	> 100	> 100	> 100	> 100	58.8	–	–	–	–	–	–	–	–	–	–
COC(=O)[C@@]1(C)CCC[C@]2(C(=O)O)C3Cc4occc4[C@H](C)[C@@H]3CCC21 (stereo partly specified)	> 100	> 100	–	> 100	> 100 µM	> 100	> 100	–	96.9	> 100	–	–	–	–	–	–	–	–	–	–
Cc1nc(Nc2nc3ccccc3[nH]2)nc(Cl)c1CCCl	> 100	> 100	> 100	–	> 100 µM	> 100	–	> 100	> 100	> 100	–	–	–	–	–	–	–	–	–	–
Cc1nc2cccc(F)c2c(=O)n1-c1nnc(C(F)(F)F)s1	> 10	> 10	> 10	> 10	> 10 µM	> 10	> 10	> 10	> 10	> 10	–	–	–	–	–	–	–	–	–	–
N#C/C(=C1/c2cc([N+](=O)[O-])ccc2-c2c1cc([N+](=O)[O-])cc2[N+](=O)[O-])N1CCCCC1	> 100	> 100	> 100	> 100	> 100 µM	> 100	> 100	69.7	> 100	4.44	–	–	–	–	–	–	–	–	–	–
COc1cc2c(cc1O)CCN(C)[C@H]2Cc1ccc(Oc2c(O)c(OC)cc3c2C[C@H]2c4c(c(OC)c(OC)c(OC)c4-3)CCN2C)cc1	9.28	11.3	10.1	11.8	10.7 µM	11	10.6	4.38	8.9	4.86	–	–	–	–	–	–	–	–	–	–
O=C1C(Cl)=C(c2ccc([N+](=O)[O-])cc2)C(=O)c2c(O)cccc21	> 100	33.4	3.35	14.8	4.34 µM	> 100	3.11	4.62	7.28	> 100	–	–	–	–	–	–	–	–	–	–
O=P(O)(O)C=C=C1CCCCC1	–	> 100	> 100	> 100	> 100 µM	–	> 100	> 100	> 100	> 100	–	–	–	–	–	–	–	–	–	–
CC1(C)[C@@H](OC(N)=O)C=C[C@]2(CO)[C@H]3CC[C@]4(C)[C@@H](c5ccc(=O)oc5)[C@@H](Cl)C[C@]4(O)C3=CC[C@@H]12	0.0131	0.00806	0.0258	0.00316	0.0284 µM and 0.0829 µM	–	0.00411	0.00372	0.0137	0.0146	< 0.0001	< 0.0001	0.00481	< 0.0001	0.00313 µM and 0.0025 µM	< 0.0001	< 0.0001	< 0.0001	0.00189	0.00232
CCOC(=O)c1c(N)sc2c1C(C(=O)OCC)CCC2 (stereo unspecified)	> 100	> 100	> 100	> 100	> 100 µM	> 100	–	–	> 100	> 100	–	–	–	–	–	–	–	–	–	–
